Experiments:
[1] = test system: male C57/B6 mice; experiment: microRNA profile of plasma, acetaminophen treatment group vs control group; type: in vivo; settings: 300 mg/kg single intraperitoneal injection, 24 hours post exposure, FIG. 3
Protocol: Approximately, 800 μl of QIAzol lysis reagent was added to 200 μl liquid sample. The sample was mixed in a tube followed by adding 200 μl of chloroform. After mixing rigorously for 15 seconds, the sample was then centrifuged at 12,000×g for 15 minutes. The upper aqueous phase was carefully transferred to a new collection tube, and 1.5 total volumes of ethanol was added. The sample was then applied directly to a glass membrane containing column and the RNA was bound and purified by three contiguous washing to remove unwanted contamination. The immobilized RNA was then collected from the membrane with a low salt elution buffer.
The male C57/B6 mice were randomly grouped into two groups, a treatment group (3 animals) and control group (4 animals). […] Mice were sacrificed at 24 hours post exposure, the plasma samples were collected and RNA was isolated.
The expression levels of microRNA sequences in the serum were used to make a microRNA profile. The differentially expressed microRNA sequences between the treatment group and the control group were clustered with the Hierarchical clustering method and is shown in FIG. 3.

[2] = test system: male C57/B6 mice; settings: mouse, in vivo
Protocol: Quantitative PCR (QPCR) with microRNA specific primer sets were used to confirm the results from array hybridization. In brief, a SYBR Green based method, miScript real-time PCR (Qiagen Inc. Valencia, Calif., USA), or TaqMan primer set from Apply Biosystems, was used with 50 ng of total RNA from each sample. The first strand cDNA was generated according to the manufacturer's instruction. Approximately 2.5 ng of cDNA was used in the PCR reaction. The yield of 18 to 20 base pair fragments (based on SYBR Green intensity) corresponding to the specific microRNA species was monitored with the 7900HT fast real-time PCR system from Applied Biosystems (Applied Biosystems, Foster City, Calif.). QPCR results were analyzed by SDS 2.2.2, with a manual CT threshold value of 0.2.
The male C57/B6 mice were randomly grouped into nine different groups with 4 animals in each group. […] Mice were sacrificed and plasma samples were collected at 1, 3 and 24 hours post-exposure. The nine groups were: 1) 1 hour control; 2) 1 hour treatment 1; 3) 1 hour treatment 2; 4) 1 hour treatment 3; 5) 3 hour control; 6) 3 hour treatment 1; 7) 3 hour treatment 2; 8) 3 hour treatment 3; and 9) 24 hour treatment 3. […] The expression levels of two different microRNA sequences, mir-486 and mir-122, in the serum were profiled by quantitative polymerase chain reactions (Q-PCR). […]

SMILES: CC(=O)Nc1ccc(O)cc1 [acetaminophen]
- levels of microRNA sequences in serum/plasma, treatment vs control [1]: levels of certain microRNA sequences in the serum could be used as an indication of the acetaminophen toxicity
- mir-486 and mir-122 intensities at one hour [2]: Clear changes

Reference: patent US8748101B2, “Methods, compositions, and devices utilizing MicroRNA to determine physiological conditions” (Battelle Memorial Institute, priority 2008, dated 2014)
